{"source": "paper PMC4457528", "about": "“Identification of Novel Small Molecule Inhibitors of Oncogenic RET Kinase” (PLoS ONE, 2015)", "test_in_all_cases": "KinomeScan kinase panel, single concentration 10 µM", "format_in_all_cases": "binding", "key": {"[1]": {"molecular_target": "T1, KinomeScan kinase panel (Homo sapiens, UniProt Q9UQ88)", "T1 construct": "purchased DiscoveRx (KinomeScan)", "T1 sequence (Q9UQ88 1-783)": "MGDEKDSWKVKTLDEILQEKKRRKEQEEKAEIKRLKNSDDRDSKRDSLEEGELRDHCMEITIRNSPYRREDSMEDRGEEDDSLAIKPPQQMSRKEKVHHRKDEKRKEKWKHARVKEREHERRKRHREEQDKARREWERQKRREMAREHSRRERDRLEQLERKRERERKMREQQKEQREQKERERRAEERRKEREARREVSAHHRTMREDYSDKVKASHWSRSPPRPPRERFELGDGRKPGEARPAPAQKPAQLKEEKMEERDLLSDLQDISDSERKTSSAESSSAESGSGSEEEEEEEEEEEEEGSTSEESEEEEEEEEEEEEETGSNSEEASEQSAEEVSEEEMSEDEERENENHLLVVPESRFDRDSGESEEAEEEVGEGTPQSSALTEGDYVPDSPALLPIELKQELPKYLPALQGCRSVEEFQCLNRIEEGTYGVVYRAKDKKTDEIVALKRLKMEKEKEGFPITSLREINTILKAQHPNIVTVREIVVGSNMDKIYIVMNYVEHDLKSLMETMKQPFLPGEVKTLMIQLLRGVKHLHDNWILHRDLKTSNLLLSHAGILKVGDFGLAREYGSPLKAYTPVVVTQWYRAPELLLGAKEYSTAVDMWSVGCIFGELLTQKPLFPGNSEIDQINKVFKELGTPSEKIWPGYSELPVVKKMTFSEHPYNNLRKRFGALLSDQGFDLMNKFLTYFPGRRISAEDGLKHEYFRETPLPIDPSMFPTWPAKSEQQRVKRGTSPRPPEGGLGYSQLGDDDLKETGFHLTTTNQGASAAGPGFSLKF", "settings": "CDC2L2, 10 µM; read-out: score (%)"}, "[2]": {"molecular_target": "T2, KinomeScan kinase panel (Homo sapiens, UniProt Q15831)", "T2 construct": "purchased DiscoveRx (KinomeScan)", "T2 sequence (Q15831 1-433)": "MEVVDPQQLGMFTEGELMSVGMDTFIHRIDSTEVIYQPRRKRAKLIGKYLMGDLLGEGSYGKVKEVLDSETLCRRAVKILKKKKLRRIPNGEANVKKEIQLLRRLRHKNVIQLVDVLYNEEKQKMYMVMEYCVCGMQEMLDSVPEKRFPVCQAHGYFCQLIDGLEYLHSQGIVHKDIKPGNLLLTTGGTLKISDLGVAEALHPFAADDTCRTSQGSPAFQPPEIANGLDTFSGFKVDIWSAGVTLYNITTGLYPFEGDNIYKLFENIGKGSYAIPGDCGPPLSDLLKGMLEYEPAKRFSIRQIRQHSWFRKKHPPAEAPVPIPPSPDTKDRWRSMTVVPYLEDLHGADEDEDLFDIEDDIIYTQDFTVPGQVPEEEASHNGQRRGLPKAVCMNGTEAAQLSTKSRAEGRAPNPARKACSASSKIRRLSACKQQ", "settings": "LKB1, 10 µM; read-out: score (%)"}, "[3]": {"molecular_target": "T3, KinomeScan kinase panel (Homo sapiens, UniProt Q96L34)", "T3 construct": "purchased DiscoveRx (KinomeScan)", "T3 sequence (Q96L34 1-752)": "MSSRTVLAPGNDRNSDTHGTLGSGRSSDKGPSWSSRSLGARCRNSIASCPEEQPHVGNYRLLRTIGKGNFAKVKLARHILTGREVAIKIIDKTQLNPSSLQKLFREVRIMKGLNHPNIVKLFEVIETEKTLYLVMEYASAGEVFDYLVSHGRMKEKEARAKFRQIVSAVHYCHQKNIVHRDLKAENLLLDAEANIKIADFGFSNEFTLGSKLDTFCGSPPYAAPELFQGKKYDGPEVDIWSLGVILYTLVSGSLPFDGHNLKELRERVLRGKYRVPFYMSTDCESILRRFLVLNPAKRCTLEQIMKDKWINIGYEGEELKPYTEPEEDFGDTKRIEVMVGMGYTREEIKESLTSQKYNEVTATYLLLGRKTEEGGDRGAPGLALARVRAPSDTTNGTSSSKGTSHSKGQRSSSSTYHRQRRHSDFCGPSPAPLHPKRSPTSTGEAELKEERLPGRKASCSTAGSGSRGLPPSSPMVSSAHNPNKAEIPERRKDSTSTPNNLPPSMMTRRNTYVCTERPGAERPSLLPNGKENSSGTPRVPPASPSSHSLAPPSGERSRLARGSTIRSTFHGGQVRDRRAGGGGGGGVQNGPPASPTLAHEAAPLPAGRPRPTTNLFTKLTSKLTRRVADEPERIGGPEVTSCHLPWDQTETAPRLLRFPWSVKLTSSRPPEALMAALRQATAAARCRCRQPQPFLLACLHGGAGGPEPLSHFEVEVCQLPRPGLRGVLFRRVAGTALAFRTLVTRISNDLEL", "settings": "MARK4, 10 µM"}, "[4]": {"molecular_target": "T4, KinomeScan kinase panel (Homo sapiens, UniProt P29322)", "T4 construct": "purchased DiscoveRx (KinomeScan)", "T4 sequence (P29322 28-1005)": "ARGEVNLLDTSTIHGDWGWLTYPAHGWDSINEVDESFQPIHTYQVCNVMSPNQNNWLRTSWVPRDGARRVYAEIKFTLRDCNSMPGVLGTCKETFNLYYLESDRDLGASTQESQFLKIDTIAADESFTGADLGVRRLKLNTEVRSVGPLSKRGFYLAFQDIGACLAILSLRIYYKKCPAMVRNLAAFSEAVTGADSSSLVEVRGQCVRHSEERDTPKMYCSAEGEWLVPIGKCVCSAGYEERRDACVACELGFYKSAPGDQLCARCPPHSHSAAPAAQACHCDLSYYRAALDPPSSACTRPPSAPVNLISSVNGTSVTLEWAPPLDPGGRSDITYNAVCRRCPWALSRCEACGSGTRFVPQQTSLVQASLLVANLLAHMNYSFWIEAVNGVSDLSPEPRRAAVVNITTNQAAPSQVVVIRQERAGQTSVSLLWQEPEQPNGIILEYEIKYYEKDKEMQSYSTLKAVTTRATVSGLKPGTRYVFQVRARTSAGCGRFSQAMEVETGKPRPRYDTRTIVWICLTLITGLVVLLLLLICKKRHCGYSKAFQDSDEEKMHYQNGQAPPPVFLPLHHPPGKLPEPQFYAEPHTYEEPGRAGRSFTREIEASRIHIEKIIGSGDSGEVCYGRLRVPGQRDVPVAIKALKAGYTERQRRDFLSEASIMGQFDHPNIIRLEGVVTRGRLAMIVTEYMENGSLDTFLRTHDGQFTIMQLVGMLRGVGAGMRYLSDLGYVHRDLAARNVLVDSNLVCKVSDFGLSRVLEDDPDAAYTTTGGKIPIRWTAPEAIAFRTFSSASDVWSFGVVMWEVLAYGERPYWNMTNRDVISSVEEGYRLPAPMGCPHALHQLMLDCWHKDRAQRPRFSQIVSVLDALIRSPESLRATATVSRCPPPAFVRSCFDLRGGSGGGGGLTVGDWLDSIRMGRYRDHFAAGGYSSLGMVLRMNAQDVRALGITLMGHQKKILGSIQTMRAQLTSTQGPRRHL", "settings": "EPHA8, 10 µM; read-out: score (%)"}}}
{"smiles": "CCN1CCN(Cc2ccc(NC(=O)c3ccc(C)c(NC(=O)c4cncc(-c5cccs5)c4)c3)cc2C(F)(F)F)CC1", "note": "[ALW-II-41-27]", "values": [{"measurement": "remaining binding at 10 µM", "setting": "[1]", "result": 1.8, "unit": "%"}, {"measurement": "remaining binding at 10 µM", "setting": "[2]", "result": "> 30", "unit": "%"}, {"measurement": "score (%)", "setting": "[3]", "result": "nb (Hits values higher than 30% were considered negative (no binding: nb))"}, {"measurement": "remaining binding at 10 µM", "setting": "[4]", "result": 0.1, "unit": "%"}]}
{"smiles": "CCN1CCN(Cc2ccc(NC(=O)c3ccc(C)c(/C=C/c4cnc5[nH]ccc5c4Cl)c3)cc2C(F)(F)F)CC1", "note": "[HG-6-63-01, (E)-3-(2-(4-chloro-1H-pyrrolo[2,3-b]pyridin-5-yl)vinyl)-N-(4-((4-ethylpiperazin-1-yl)methyl)-3-(trifluoromethyl)phenyl)-4-methylbenzamide]", "values": [{"measurement": "remaining binding at 10 µM", "setting": "[1]", "result": 17, "unit": "%"}, {"measurement": "remaining binding at 10 µM", "setting": "[2]", "result": 29, "unit": "%"}, {"measurement": "score (%)", "setting": "[3]", "result": 25, "unit": "%"}, {"measurement": "remaining binding at 10 µM", "setting": "[4]", "result": 0.1, "unit": "%"}]}
{"smiles": "CCN1CCN(Cc2ccc(NC(=O)c3ccc(C)c(C#Cc4cccnc4)c3)cc2C(F)(F)F)CC1", "note": "[XMD15-44]", "values": [{"measurement": "remaining binding at 10 µM", "setting": "[1]", "result": 1.6, "unit": "%"}, {"measurement": "remaining binding at 10 µM", "setting": "[2]", "result": "> 30", "unit": "%"}, {"measurement": "score (%)", "setting": "[3]", "result": "nb (Hits values higher than 30% were considered negative (no binding: nb))"}, {"measurement": "remaining binding at 10 µM", "setting": "[4]", "result": 0, "unit": "%"}]}
